# Measured values as given in patent publication US9856216B2, “Compounds as TNIK, IKKε and TBK1 inhibitors and pharmaceutical composition comprising same” (GREEN CROSS CORPORATION, priority 2015, dated 2018).
# pIC50: −log10 of the molar value. Where a name gives a salt, the structure may show the parent alone.
# Target: T1, TNIK (Homo sapiens, UniProt Q9UKE5)
# T1 construct: purchased Promega V4158
# Experiment: ADP-Glo Kinase Assay, inhibition activity on TNIK
# Assay type: biochemical
# Conditions: not given
# Protocol: The inhibition activities on TNIK, IKKε and TBK1 were measured by a luminometer, TNIK/IKKε/TBK1 Kinase Enzyme System (Promega, Ca# V4158; Invitrogen, PR8031B, Promega, Ca# V3991) and ADP-Glo Kinase Assay using ADP-Glo™ Kinase Analysis Kit (Promega, Ca# V9101) and a kinase reaction buffer [40 mM Tris(pH 7.5), 20 mM MgCl2, 0.1 mg/mL BSA] in accordance with the manufacturer's protocol.
# T1 sequence (Q9UKE5 1-367 limits assumed): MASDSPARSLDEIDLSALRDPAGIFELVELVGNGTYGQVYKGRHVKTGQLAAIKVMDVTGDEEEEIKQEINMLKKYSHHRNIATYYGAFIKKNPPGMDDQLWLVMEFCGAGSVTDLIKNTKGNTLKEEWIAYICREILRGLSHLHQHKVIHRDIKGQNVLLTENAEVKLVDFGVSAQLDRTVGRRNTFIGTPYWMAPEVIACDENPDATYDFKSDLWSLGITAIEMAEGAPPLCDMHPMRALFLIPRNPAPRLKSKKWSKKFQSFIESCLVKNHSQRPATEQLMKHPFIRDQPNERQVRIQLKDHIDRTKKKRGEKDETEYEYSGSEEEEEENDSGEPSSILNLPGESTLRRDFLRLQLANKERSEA
row,TNIK (μM),SMILES
1,Insoluble,"COC(=O)c1ccc(-c2ccc(NC(=O)c3ccccc3)c3c2CNC3=O)cc1 [Example 10, methyl 4-(7-benzamido-1-oxoisoindolin-4-yl)benzo ate]"
2,Insoluble,"COc1cc(F)ccc1-c1ccc(NC(=O)c2ccccc2)c2c1CNC2=O [Example 22, N-(7-(4-fluoro-2-methoxyphenyl)-3-oxoisoindolin-4-yl)benzamide]"
3,Insoluble,"O=C(Nc1ccc(-c2ccc(F)nc2)c2c1C(=O)NC2)c1ccccc1 [Example 199, N-(7-(6-fluoropyridin-3-yl)-3-oxoisoindolin-4-yl)benzamide]"

# Same assay, conditions: read-out: TNIK
row,SMILES,pIC50
1,"Cn1cncc1-c1ccc(NC(=O)c2ccccc2)c2c1CNC2=O [Example 56, N-(7-(1-methyl-1H-imidazol-5-yl)-3-oxoisoindolin-4-yl) benzamide]",5.66
2,"O=C(Nc1ccc(-c2cccs2)c2c1C(=O)NC2)c1ccc(F)cc1 [Example 191, 4-Fluoro-N-(3-oxo-7-(thiophen-2-yl)isoindolin-4-yl)benzamide]",4.87
3,"COc1ccc(C(=O)Nc2ccc(-c3ccc(C(C)=O)cc3)c3c2C(=O)NC3)cc1 [Example 204, N-(7-(4-acetylphenyl)-3-oxoisoindolin-4-yl)-4-methoxy benzamide]",< 4.70
4,"O=C1NCc2c(-c3ccccc3)ccc(NS(=O)(=O)c3ccc(F)cc3)c21 [Example 251, 4-Fluoro-N-(3-oxo-7-phenylisoindolin-4-yl)benzene sulfonamide]",< 4.70
5,"O=C(Nc1ccc(-c2ccccc2)c2c1C(=O)NC2)c1ccc(Cl)s1 [Example 170, 5-Chloro-N-(3-oxo-7-phenylisoindolin-4-yl)thiophene-2-carboxamide]",5.45
6,"Cc1ccc(-c2ccc(N)c3c2CNC3=O)cc1 [Example 63, 7-Amino-4-(p-tolyl)isoindolin-1-one]",< 4.70
7,"O=C(Nc1ccc(Nc2cnccn2)c2c1C(=O)NC2)c1ccc(F)cc1 [Example 429, 4-Fluoro-N-(3-oxo-7-(pyrazin-2-ylamino)isoindolin-4-yl) benzamide]",6.28
8,"O=C(Nc1ccc(Cl)cc1)Nc1ccc(-c2ccccc2)c2c1C(=O)NC2 [Example 243, 1-(4-Chlorophenyl)-3-(3-oxo-7-phenylisoindolin-4-yl)urea]",5.41
9,"COc1cccc(-c2ccc(NC(=O)c3ccc(F)cc3)c3c2CNC3=O)c1O [Example 190, 4-Fluoro-N-(7-(2-hydroxy-3-methoxyphenyl)-3-oxoisoindolin-4-yl)benzamide]",6.28
10,"Cc1ccc(C(=O)Nc2ccc(-c3ccccc3)c3c2C(=O)NC3)cc1C [Example 93, 3,4-Dimethyl-N-(3-oxo-7-phenylisoindolin-4-yl)benzamide]",5.96
11,"O=C(Nc1ncc(-c2ccccc2)c2c1C(=O)NC2)c1ccc(F)cc1 [Example 279, 4-Fluoro-N-(3-oxo-7-phenyl-2,3-dihydro-1H-pyrrolo[3,4-c]pyridin-4-yl)benzamide]",< 4.70
12,"O=C1NCc2c(-c3ccccc3)ccc(NCc3ccccc3)c21 [Example 263, 7-(Benzylamino)-4-phenylisoindolin-1-one]",< 4.70
13,"CS(=O)(=O)c1ccccc1C(=O)Nc1ccc(-c2ccccc2)c2c1C(=O)NC2 [Example 98, 2-(Methylsulfonyl)-N-(3-oxo-7-phenylisoindolin-4-yl) benzamide]",4.98
14,"CCCOc1ccccc1-c1ccc(NC(=O)c2ccccc2)c2c1CNC2=O [Example 43, N-(3-oxo-7-(2-propoxyphenyl)isoindolin-4-yl)benzamide]",< 4.70
15,"COCCNc1ccc(C(=O)Nc2ccc(-c3cccc(OC)c3OC)c3c2C(=O)NC3)cc1 [Example 300, N-(7-(2,3-dimethoxyphenyl)-3-oxoisoindolin-4-yl)-4-((2-methoxyethyl)amino)benzamide]",6.96
16,"CC(=O)Nc1ccc(C(=O)Nc2ccc(-c3ccc(F)cc3)c3c2C(=O)NC3)cc1 [Example 124, 4-Acetamido-N-(7-(4-fluorophenyl)-3-oxoisoindolin-4-yl) benzamide]",6.77
17,"O=C(Nc1ccc(-c2ccccc2F)c2c1C(=O)NC2)c1ccccc1 [Example 149, N-(7-(2-fluorophenyl)-3-oxoisoindolin-4-yl)benzamide]",5.42
18,"O=C(Nc1ccc(-c2ccccc2)c2c1C(=O)NC2)c1sccc1Br [Example 157, 3-Bromo-N-(3-oxo-7-phenylisoindolin-4-yl)thiophene-2-carboxamide]",5.47
19,"COc1ccc(OC)c(-c2ccc(NC(=O)c3ccccc3)c3c2CNC3=O)c1 [Example 178, N-(7-(2,5-dimethoxyphenyl)-3-oxoisoindolin-4-yl)benzamide]",< 4.70
20,"CN(C)CCCNc1ccc(C(=O)Nc2ccc(Br)c3c2C(=O)NC3)cc1 [Example 286, N-(7-bromo-3-oxoisoindolin-4-yl)-4-((3-(dimethylamino)propyl)amino)benzamide]",5.83

# Now from value to molecule:
row,pIC50,SMILES
1,6.55,"O=C(Nc1ccc(Nc2ccccc2)c2c1C(=O)NC2)c1ccc(F)cc1 [Example 408, 4-Fluoro-N-(3-oxo-7-(phenylamino)isoindolin-4-yl)benzamide]"
2,6.43,"COc1ccccc1-c1ccc(NC(=O)c2ccc(N3CCOCC3)cc2)c2c1CNC2=O [Example 323, N-(7-(2-methoxyphenyl)-3-oxoisoindolin-4-yl)-4-morpholino benzamide]"
3,6.33,"O=C(Nc1ccc(-c2ccco2)c2c1C(=O)NC2)c1ccc(NCCO)cc1 [Example 292, N-(7-(furan-2-yl)-3-oxoisoindolin-4-yl)-4-((2-hydroxyethyl)amino)benzamide]"
4,6.48,"O=C(Nc1ccc(-c2ccccc2)c2c1C(=O)NC2)c1ccc(NCCCN2CCCC2)cc1 [Example 363, N-(3-oxo-7-phenylisoindolin-4-yl)-4-((3-(pyrrolidin-1-yl)propyl)amino)benzamide]"
5,6.68,"CC(=O)Nc1ccc(C(=O)Nc2ccc(Nc3ccccc3)c3c2C(=O)NC3)cc1 [Example 435, 4-Acetamido-N-(3-oxo-7-(phenylamino)isoindolin-4-yl) benzamide]"
6,5.06,"O=C(Nc1ccc(-c2ccccc2)c2c1C(=O)NC2)c1ccc(N2CCOCC2)cc1 [Example 320, 4-Morpholino-N-(3-oxo-7-phenylisoindolin-4-yl)benzamide]"
7,5.01,"O=C(Nc1ccc(Br)c2c1C(=O)NCC2)c1ccc(NCCN2CCCC2)cc1 [Example 403, N-(5-bromo-1-oxo-1,2,3,4-tetrahydroisoquinolin-8-yl)-4-((2-(pyrrolidin-1-yl)ethyl)amino)benzamide]"
8,6.85,"O=C(Nc1ccc(Nc2ccccc2)c2c1C(=O)NC2)c1ccc(NC[C@@H](O)CN2CCCCC2)cc1 [Example 490, (R)-4-((2-hydroxy-3-(piperidin-1-yl)propyl)amino)-N-(3-oxo-7-(phenylamino)isoindolin-4-yl)benzamide]"
9,< 4.70,"N#Cc1ccc(-c2ccc(NC(=O)c3ccccc3)c3c2CNC3=O)cc1 [Example 207, N-(7-(4-cyanophenyl)-3-oxoisoindolin-4-yl)benzamide]"
10,7.21,"COc1cccc(-c2ccc(NC(=O)c3ccc(NCCN4CCCCCC4)cc3)c3c2CNC3=O)c1OC [Example 350, 4-((2-(Azepan-1-yl)ethyl)amino)-N-(7-(2,3-dimethoxyphenyl)-3-oxoisoindolin-4-yl)benzamide]"
11,6.62,"COc1ccccc1-c1ccc(NC(=O)c2ccc(NCCN3CCCCCC3)cc2)c2c1CNC2=O [Example 349, 4-((2-(Azepan-1-yl)ethyl)amino)-N-(7-(2-methoxyphenyl)-3-oxoisoindolin-4-yl)benzamide]"
12,5.21,"O=C(Nc1cccc2c1C(=O)NC2)c1ccc(NCCN2CCCC2)cc1 [Example 346, N-(3-oxoisoindolin-4-yl)-4-((2-(pyrrolidin-1-yl)ethyl)amino) benzamide]"
13,5.51,"CCc1ccccc1-c1ccc(NC(=O)c2ccccc2)c2c1CNC2=O [Example 1, N-(7-(2-ethylphenyl)-3-oxoisoindolin-4-yl)benzamide]"
14,6.82,"O=C(Nc1ccc(Nc2ccccc2)c2c1C(=O)NC2)c1ccc(NCCN2CCOCC2)cc1 [Example 442, 4-((2-Morpholinoethyl)amino)-N-(3-oxo-7-(phenylamino)isoindolin-4-yl)benzamide]"
15,6.31,"COc1ccccc1Nc1ccc(NC(=O)c2ccc(NCCCN3CCCCC3)cc2)c2c1CNC2=O [Example 478, N-(7-((2-methoxyphenyl)amino)-3-oxoisoindolin-4-yl)-4-((3-(piperidin-1-yl)propyl)amino)benzamide]"
16,6.29,"O=C(Nc1ccc(-c2ccccc2)c2c1C(=O)NC2)c1ccc(NCCCN2CCCCC2)cc1 [Example 370, N-(3-oxo-7-phenylisoindolin-4-yl)-4-((3-(piperidin-1-yl)propyl)amino)benzamide]"
17,6.92,"CN1CCN(CCNc2ccc(C(=O)Nc3ccc(Nc4ccccc4)c4c3C(=O)NC4)cc2)CC1 [Example 443, 4-((2-(4-Methylpiperazin-1-yl)ethyl)amino)-N-(3-oxo-7-(phenylamino)isoindolin-4-yl)benzamide]"
18,6.66,"O=C(Nc1ccc(Nc2ccccc2)c2c1C(=O)NC2)c1ccc(NCCCN2CCCCC2)cc1 [Example 480, N-(3-oxo-7-(phenylamino)isoindolin-4-yl)-4-((3-(piperidin-1-yl)propyl)amino)benzamide hydrochloride]"
19,4.85,"O=C(Nc1ccc(Nc2cc(C(F)(F)F)cc(C(F)(F)F)c2)c2c1C(=O)NC2)c1ccc(NCCCN2CCCC2)cc1 [Example 466, N-(7-((3,5-bis(trifluoromethyl)phenyl)amino)-3-oxoisoindolin-4-yl)-4-((3-(pyrrolidin-1-yl)propyl)amino)benzamide]"
20,7.14,"COc1cccc(-c2ccc(NC(=O)c3ccc(NCCCN4CCCC4)cc3)c3c2CNC3=O)c1OC [Example 280, N-(7-(2,3-dimethoxyphenyl)-3-oxoisoindolin-4-yl)-4-((3-(pyrrolidin-1-yl)propyl)amino)benzamide]"
